Results: US20260132127A1, “NOVEL SPIRO COMPOUND” (MITSUBISHI TANABE PHARMA CORPORATION, priority 2021, published 2026)

These compounds were tested against T1, human TRH-DE (Homo sapiens, UniProt Q9UKU6) (assay: TRH-DE inhibition test (RapidFire MS measurement of product Cyclo (His-Pro))). Details: membrane fraction of Expi 293 cells expressing human TRH-DE; 10 μM TRH substrate; room temperature, 2 hours; 16-point concentration test.
T1 construct: expressed in transfected cells; host or cells: Expi 293 cells (transient expression), membrane fraction
T1 sequence (Q9UKU6 1-1069): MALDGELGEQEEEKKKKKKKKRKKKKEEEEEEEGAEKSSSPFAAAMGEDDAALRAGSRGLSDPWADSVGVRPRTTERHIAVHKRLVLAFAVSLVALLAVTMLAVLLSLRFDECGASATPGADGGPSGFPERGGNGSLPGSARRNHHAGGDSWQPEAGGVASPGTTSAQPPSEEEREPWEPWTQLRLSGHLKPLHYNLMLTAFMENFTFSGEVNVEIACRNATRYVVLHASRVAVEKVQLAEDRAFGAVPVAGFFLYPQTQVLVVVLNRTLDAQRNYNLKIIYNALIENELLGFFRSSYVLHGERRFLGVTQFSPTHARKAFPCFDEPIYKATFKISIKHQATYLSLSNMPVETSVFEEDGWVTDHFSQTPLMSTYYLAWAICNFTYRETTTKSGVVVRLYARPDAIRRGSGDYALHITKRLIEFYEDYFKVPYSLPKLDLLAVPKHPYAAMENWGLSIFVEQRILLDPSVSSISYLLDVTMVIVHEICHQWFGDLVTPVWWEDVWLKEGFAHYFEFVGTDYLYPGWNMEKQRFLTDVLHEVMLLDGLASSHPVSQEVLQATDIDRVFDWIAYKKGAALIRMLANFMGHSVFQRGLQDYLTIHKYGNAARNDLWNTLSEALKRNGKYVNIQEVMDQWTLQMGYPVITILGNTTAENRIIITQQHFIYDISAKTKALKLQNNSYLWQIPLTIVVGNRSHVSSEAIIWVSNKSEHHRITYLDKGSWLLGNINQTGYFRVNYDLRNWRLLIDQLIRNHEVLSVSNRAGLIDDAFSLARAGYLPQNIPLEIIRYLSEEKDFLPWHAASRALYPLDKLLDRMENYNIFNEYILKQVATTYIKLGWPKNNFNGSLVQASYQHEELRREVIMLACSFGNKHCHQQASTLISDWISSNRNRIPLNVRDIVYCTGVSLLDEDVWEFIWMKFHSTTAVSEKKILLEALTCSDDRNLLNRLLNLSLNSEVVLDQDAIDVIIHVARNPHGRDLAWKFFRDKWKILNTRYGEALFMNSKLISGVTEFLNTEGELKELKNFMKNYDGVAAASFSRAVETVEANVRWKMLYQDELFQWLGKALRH
Format: biochemical
Method in brief: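 Inhibition derived from product/internal-standard ratios of Cyclo(His-Pro), quantified by RapidFire triple-quadrupole MS after acetonitrile:methanol quench, with IC50 fitted over 16 concentrations. Enzyme source: membranes of Expi 293 cells transiently expressing human TRH-DE, 4 μg/ml, pH 7.4 phosphate buffer. Incubation with 10 μM substrate ran 2 h at room temperature.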
`COCCCN1C[C@@H](C)N(C2CC3(C2)CN(S(=O)(=O)c2ccccc2F)C3)C(=O)c2ncccc21` [Example 246] showed an IC50 of 22 nM. Compound `C[C@@H]1CN(C)c2nc(C(F)(F)F)ccc2C(=O)N1C1CC2(C1)CN(S(=O)(=O)c1ccccc1F)C2` [Example 247, (3R)-4-[2-(2-fluorophenyl)sulfonyl-2-azaspiro[3.3]heptan-6-yl]-1,3-dimethyl-8-(trifluoromethyl)-2,3-dihydropyrido[2,3-e][1,4]diazepin-5-one] has an IC50 of 2 nM. For `CC1c2ccccc2N(C)C(=O)CN1C1CC2(C1)CN(S(=O)(=O)c1ccccc1F)C2` (stereo not shown) [Example 248], the IC50 was 731 nM. For `CCn1c2ccccc2c(=O)n1C1CC2(C1)CN(S(=O)(=O)c1ccccc1)C2` [Example 250, 2-[2-benzenesulfonyl-2-azaspiro[3.3]heptan-6-yl]-1-ethyl-indazol-3-one], the IC50 was 214 nM. Work on `C[C@@H]1CNc2nc(Cl)ccc2C(=O)N1C1CC2(C1)CN(S(=O)(=O)c1ccccc1F)C2` [Example 251, (3R)-8-chloro-4-[2-(2-fluorophenyl)sulfonyl-2-azaspiro[3.3]heptan-6-yl]-3-methyl-2,3-dihydro-1H-pyrido[2,3-e][1,4]diazepin-5-one] yielded an IC50 of 1 nM. In the case of `C[C@@H]1CNc2cc(Cl)cnc2C(=O)N1C1CC2(C1)CN(S(=O)(=O)c1ccccc1F)C2` [Example 253], the IC50 is reported as 8 nM. `C[C@@H]1CNc2cc(C(F)(F)F)cnc2C(=O)N1C1CC2(C1)CN(S(=O)(=O)c1ccccc1F)C2` [Example 254] was tested, and the IC50 was 2 nM. Work on `C[C@@H]1CNc2ncccc2C(=O)N1C1CC2(C1)CN(S(=O)(=O)c1ccccc1F)C2` [Example 255] yielded an IC50 of 7 nM. For `C[C@@H]1CNc2ncc(C(F)(F)F)cc2C(=O)N1C1CC2(C1)CN(S(=O)(=O)c1ccccc1F)C2` [Example 256], the IC50 was 3 nM. In the case of `C[C@@H]1CNc2ncc(C(F)(F)F)cc2C(=O)N1C1CC2(C1)CN(S(=O)(=O)c1ccccc1[N+](=O)[O-])C2` [Example 257], the IC50 is reported as 61 nM. `C[C@@H]1CNc2nc(C3CC3)ccc2C(=O)N1C1CC2(C1)CN(S(=O)(=O)c1ccccc1F)C2` [Example 258, (3R)-8-cyclopropyl-4-[2-(2-fluorophenyl)sulfonyl-2-azaspiro[3.3]heptan-6-yl]-3-methyl-2,3-dihydro-1H-pyrido[2,3-e][1,4]diazepin-5-one] gave an IC50 of 1 nM. In the case of `Cc1nnc2n1CC[C@@H](C)N(C1CC3(C1)CN(S(=O)(=O)c1ccccc1F)C3)C2=O` [Example 260, (7R)-8-[2-(2-fluorophenyl)sulfonyl-2-azaspiro[3.3]heptan-6-yl]-3,7-dimethyl-6,7-dihydro-5H-[1,2,4]triazolo[4,3-a][1,4]diazepin-9-one], the IC50 is reported as 97 nM. With `C[C@@H]1CCn2c(nnc2C2CC2)C(=O)N1C1CC2(C1)CN(S(=O)(=O)c1ccccc1F)C2` [Example 261] the IC50 was 28 nM. In the case of `C[C@@H]1CCn2c(nnc2C(C)(C)C)C(=O)N1C1CC2(C1)CN(S(=O)(=O)c1ccccc1F)C2` [Example 262], the IC50 is reported as 91 nM. `C[C@@H]1CCn2c(nnc2-c2ccccc2)C(=O)N1C1CC2(C1)CN(S(=O)(=O)c1ccccc1F)C2` [Example 263] was tested, and the IC50 was 32 nM. Compound `Cc1nnc2n1C[C@@H](C)N(C1CC3(C1)CN(S(=O)(=O)c1ccccc1F)C3)C2=O` [Example 264] has an IC50 of 459 nM. `C[C@@H]1Cn2c(nnc2C2CC2)C(=O)N1C1CC2(C1)CN(S(=O)(=O)c1ccccc1F)C2` [Example 265] gave an IC50 of 287 nM. `CC1c2ccccc2C(=O)N1C1CC2(C1)CN(S(=O)(=O)c1ccccc1F)C2` (stereo not shown) [Example 266, 2-[2-(2-fluorophenyl)sulfonyl-2-azaspiro[3.3]heptan-6-yl]-3-methyl-isoindolin-1-one] gave an IC50 of 92 nM. In the case of `CC1(O)c2cc(C(F)(F)F)cnc2C(=O)N1C1CC2(C1)CN(S(=O)(=O)c1ccccc1F)C2` (stereo not shown) [Example 275, 6-[2-(2-fluorophenyl)sulfonyl-2-azaspiro[3.3]heptan-6-yl]-5-hydroxy-5-methyl-3-(trifluoromethyl)pyrrolo[3,4-b]pyridin-7-one], the IC50 is reported as 42 nM. In the case of `CC1(O)c2ccccc2C(=O)N1C1CC2(C1)CN(S(=O)(=O)c1ccccc1F)C2` (stereo not shown) [Example 283, 2-[2-(2-fluorophenyl)sulfonyl-2-azaspiro[3.3]heptan-6-yl]-3-hydroxy-3-methyl-isoindolin-1-one], the IC50 is reported as 67 nM. `CC1c2cc(C(F)(F)F)cnc2C(=O)N1C1CC2(C1)CN(S(=O)(=O)c1ccccc1F)C2` (stereo not shown) [Example 290, 6-[2-(2-fluorophenyl)sulfonyl-2-azaspiro[3.3]heptan-6-yl]-5-methyl-3-(trifluoromethyl)-5H-pyrrolo[3,4-b]pyridin-7-one] was tested, and the IC50 was 104 nM. `CC1c2ccncc2C(=O)N1C1CC2(C1)CN(S(=O)(=O)c1ccccc1F)C2` (stereo not shown) [Example 296, 2-[2-(2-fluorophenyl)sulfonyl-2-azaspiro[3.3]heptan-6-yl]-1-methyl-1H-pyrrolo[3,4-c]pyridin-3-one] showed an IC50 of 419 nM. In the case of `C[C@@H]1COc2c(noc2Br)C(=O)N1C1CC2(C1)CN(S(=O)(=O)c1ccccc1F)C2` [Example 297, (6R)-3-bromo-7-[2-(2-fluorophenyl)sulfonyl-2-azaspiro[3.3]heptan-6-yl]-6-methyl-5,6-dihydroisoxazolo[3,4-f][1,4]oxazepin-8-one], the IC50 is reported as 18 nM. Work on `C[C@@H]1Cn2c(Br)nc(C3CC3)c2C(=O)N1C1CC2(C1)CN(S(=O)(=O)c1ccccc1F)C2` [Example 298] yielded an IC50 of 25 nM. `C[C@@H]1CCn2c(C3CC3)nc(Cl)c2C(=O)N1C1CC2(C1)CN(S(=O)(=O)c1ccccc1F)C2` [Example 299] gave an IC50 of 33 nM. `CC1CC(F)(F)c2ncccc2C(=O)N1C1CC2(C1)CN(S(=O)(=O)c1ccccc1F)C2` (stereo not shown) [Example 300, 9,9-Difluoro-6-[2-(2-fluorophenyl)sulfonyl-2-azaspiro[3.3]heptan-6-yl]-7-methyl-7,8-dihydropyrido[3,2-c]azepin-5-one] gave an IC50 of 168 nM. `CC1C=C(F)c2ncccc2C(=O)N1C1CC2(C1)CN(S(=O)(=O)c1ccccc1F)C2` (stereo not shown) [Example 301, 9-fluoro-6-[2-(2-fluorophenyl)sulfonyl-2-azaspiro[3.3]heptan-6-yl]-7-methyl-7H-pyrido[3,2-c]azepin-5-one] was tested, and the IC50 was 91 nM. `CC(=O)N1C[C@@H](C)N(C2CC3(C2)CN(S(=O)(=O)c2ccccc2F)C3)C(=O)c2ncccc21` [Example 302, (3R)-1-acetyl-4-[2-(2-fluorophenyl)sulfonyl-2-azaspiro[3.3]heptan-6-yl]-3-methyl-2,3-dihydropyrido[3,2-e][1,4]diazepin-5-one] was tested, and the IC50 was 47 nM. `CCC(=O)N1C[C@@H](C)N(C2CC3(C2)CN(S(=O)(=O)c2ccccc2F)C3)C(=O)c2ncccc21` [Example 303] showed an IC50 of 82 nM. Compound `CCCC(=O)N1C[C@@H](C)N(C2CC3(C2)CN(S(=O)(=O)c2ccccc2F)C3)C(=O)c2ncccc21` [Example 304] has an IC50 of 1070 nM. In the case of `CC(C)C(=O)N1C[C@@H](C)N(C2CC3(C2)CN(S(=O)(=O)c2ccccc2F)C3)C(=O)c2ncccc21` [Example 305], the IC50 is reported as 62 nM. In the case of `C[C@@H]1CN(C(=O)C2CC2)c2cccnc2C(=O)N1C1CC2(C1)CN(S(=O)(=O)c1ccccc1F)C2` [Example 306], the IC50 is reported as 56 nM. In the case of `COCC(=O)N1C[C@@H](C)N(C2CC3(C2)CN(S(=O)(=O)c2ccccc2F)C3)C(=O)c2ncccc21` [Example 307], the IC50 is reported as 285 nM. `C[C@@H]1CN(C(=O)c2ccccc2)c2cccnc2C(=O)N1C1CC2(C1)CN(S(=O)(=O)c1ccccc1F)C2` [Example 308] was tested, and the IC50 was 655 nM. In the case of `C[C@@H]1CCn2cncc2C(=O)N1C1CC2(C1)CN(S(=O)(=O)c1ccccc1F)C2` [Example 309, (7R)-8-[2-(2-fluorophenyl)sulfonyl-2-azaspiro[3.3]heptan-6-yl]-7-methyl-6,7-dihydro-5H-imidazo[1,5-a][1,4]diazepin-9-one], the IC50 is reported as 32 nM. `C[C@@H]1CCn2cnc(C3CC3)c2C(=O)N1C1CC2(C1)CN(S(=O)(=O)c1ccccc1F)C2` [Example 310] was tested, and the IC50 was 41 nM. For `C[C@@H]1COc2cc(C3CC3)cnc2C(=O)N1C1CC2(C1)CN(S(=O)(=O)c1ccccc1F)C2` [Example 311], the IC50 was 1 nM. With `Cc1cc2c(cn1)C(=O)N(C1CC3(C1)CN(S(=O)(=O)c1ccccc1F)C3)[C@H](C)CO2` [Example 312] the IC50 was 2 nM. `C[C@@H]1COc2cc(C3CC3)ncc2C(=O)N1C1CC2(C1)CN(S(=O)(=O)c1ccccc1F)C2` [Example 313] gave an IC50 of 1 nM. `Cc1ccc2c(n1)OC[C@@H](C)N(C1CC3(C1)CN(S(=O)(=O)c1ccccc1F)C3)C2=O` [Example 314] was tested, and the IC50 was 9 nM.
